Assay results as given in paper PMC12679848, “Sulphonamide derivatives with a triazine core as novel inducers of apoptosis and pyroptosis in glioblastoma multiforme cells” (Journal of Enzyme Inhibition and Medicinal Chemistry, 2025).

Key:
[1] = Annexin V-FITC/PI apoptosis analysis, U-87 MG; assay type: cell-based, human; conditions: human, U-87 MG cells, read-out: Viable cells
Method: (§1) The level of apoptosis induction of the newly synthesised compounds MM118 and MM119 was determined using double staining with Annexin V-FITC and propidium iodide (AV/PI). This method enables the differentiation of four cell populations based on their state: viable cells, necrotic cells, cells in early apoptosis, and late apoptosis. The compounds were analysed on A172 and U-87 MG human glioblastoma multiforme cell lines using concentrations of 1 μM and 1.5 μM over a 24-h exposure period.
(§2) The impact of apoptosis induction by the tested compounds at concentrations of 1 μM and 1.5 μM, as well as by temozolomide at 1.5 μM, was evaluated through annexin V-FITC and propidium iodide (PI) staining with the Apoptosis Detection Kit II (BD Biosciences, San Diego, CA, USA). The glioblastoma cell lines A172 and U-87 MG were then deprived of medium and washed several times with cold phosphate-buffered saline (PBS) solution. The cell suspension was then prepared in the binding buffer provided in the kit at a concentration of 1 × 10^6 cells/mL. From each sample, 100 μL of the cell suspension was transferred to tubes and subsequently treated with 5 μL of Annexin V-FITC and 5 μL of propidium iodide (PI). The tubes were then incubated for 15 min at room temperature in the dark. Following the incubation period, 400 μL of binding buffer was added to each sample, after which the samples were immediately analysed using a BD FACSCanto II flow cytometer (Becton Dickinson Biosciences, San Jose, CA, USA), with 10,000 events recorded per sample. The results were then analysed using FACSDiva Software Version 6.1.3 (BD Biosciences Systems, San Jose, CA, USA).

U-87 MG = assay: Annexin V-FITC/PI apoptosis analysis, U-87 MG; assay type: cell-based, human; conditions: 1.5 μM, 24 h
Method: as §1, §2

caspase 1 = assay: Caspase 1 activation (FAM FLICA), U-87 MG; assay type: cell-based, human; conditions: 24 h
Method: Given the activation of oxidative stress and the occurrence of apoptotic cell death, we decided to verify whether other cell death pathways are triggered. The level of pyroptosis induction of the newly synthesised compounds MM118 and MM119 was determined by assessing the activation of caspase 1. This method facilitates the identification of cells undergoing pyroptosis by detecting the active form of caspase 1, which is a pivotal mediator in the pyroptotic pathway. The tested compounds were analysed on human A172 and U-87 MG glioblastoma multiforme cell lines using concentrations of 1 μM and 1.5 μM for a period of 24 h. […] Conversely, for compound MM119 in line A172, caspase 1 activation was 12.35 ± 2.00% at a concentration of 1 μM and 21.30 ± 1.57% at a concentration of 1.5 μM. For the U-87 MG line, the values were 12.25 ± 2.16% and 24.50 ± 2.11%, respectively.
(§3) The activity of caspase 1, caspase 3/7, caspase 8, and caspase 9 was evaluated through the utilisation of FAM FLICA Caspase Assays (ImmunoChemistry Technologies, Bloomington, MN, USA), in accordance with the established protocols. Following treatment with the compounds, the cells were collected at a concentration of 1 × 10^6 cells/mL, washed twice with cold PBS, and resuspended in 290 μL of PBS. The subsequent step involved the addition of 10 μL of 30X FLICA solution, followed by incubation at 37 °C in the absence of light for one hour. Then, 2 ml of Apoptosis Wash Buffer was added, and the samples were washed twice. A 300 μL aliquot of each sample was transferred to a BD FACSCanto II flow cytometer (Becton Dickinson Biosciences, San Jose, CA, USA), where 10,000 events per sample were recorded. The resulting data was then analysed using FACSDiva software, version 6.1.3 (BD Biosciences Systems, San Jose, CA, USA).

[2] = Annexin V-FITC/PI apoptosis analysis, A172; assay type: cell-based, human; conditions: human, A172 cells, read-out: Viable cells; for viability at 24 h, 1 µM: A172, 1.0 μM; for viability at 24 h, 1.5 µM: A172, 1.5 μM
Method: as §1, §2

A172 = assay: Annexin V-FITC/PI apoptosis analysis, A172; assay type: cell-based, human; conditions: A172, 1.5 μM, 24 h
Method: as §1, §2

U-118 MG = assay: MTT assay, U-118 MG; assay type: cell-based; conditions: Homo sapiens, 24 h of incubation, read-out: IC50 values ± SEM, MTT assay
Method: Human glioblastoma cell lines (A172 CRL-1620™, U-87 MG HTB-14™, U-118 MG HTB-15™, T98G CRL-1690™) and the mouse astrocyte cell line (C8-D1A CRL-2541™) were obtained from the American Type Culture Collection (ATCC, Manassas, VA, USA). The cell lines were cultured in complete medium: DMEM (Corning, Kennebunk, ME, USA) for C8-D1A and T98G, and EMEM (ATCC, Manassas, VA, USA) for A172, U-87 MG, U118MG. The media were supplemented with 10% foetal bovine serum (Eurx, Gdansk, Poland) and 1% penicillin-streptomycin solution (Corning, Kennebunk, ME, USA). Cells were cultured in cell culture flasks (Sarstedt, Numbrecht, Germany) at 37 °C in 5% CO2. For experiments, cells were washed with phosphate-buffered saline without calcium and magnesium (Corning, Kennebunk, ME, USA) and treated with 0.05% trypsin and 0.02% EDTA (Corning, Kennebunk, ME, USA). Cells were counted using a Sceptre 3.0 cell counter (Merck Millipore, Burlington, MA, USA) prior to seeding into plates. For 6-well plates, 5 x 10^5 cells/mL were seeded, while for 96-well plates (Sarstedt, Numbrecht, Germany), 1 x 10^5 cells/mL were seeded in 100 μL of the medium.
The cell lines were seeded in 96-well plates and cultured according to the methodology described in the previous section. Cells were then treated with the novel derivatives MM118 and MM119 and the reference compound temozolomide (TMZ) (Sigma-Aldrich, St. Louis, MO, USA) at concentrations of 0.1, 0.25, 0.5, 1.0, 2.5, 5.0, and 10.0 μM for 24 h. The MTT assay was performed using a solution of 3–(4,5-dimethyl-2-thiazolyl)-2,5-diphenyl-2H-tetrazolium bromide (Sigma-Aldrich, St. Louis, MO, USA) at a concentration of 5 mg/mL in phosphate-buffered saline without calcium and magnesium (Corning, Kennebunk, ME, USA). After 24 h incubation with test compounds, 10 μL MTT solution was added to each well, and cells were incubated for another 2 h at 37 °C. The cells were then lysed in 100 μL lysis buffer (25 mM HCl, 2% acetic acid, 3% DMF, and 5% SDS, adjusted to pH 4.7). Absorbance was measured at 570 nm using an Absorbance 96 microplate reader (Byonoy GmbH, Hamburg, Germany).

caspase 3/7 = assay: Caspase 3/7 activation (FAM FLICA), A172; assay type: cell-based, human; conditions: A172, 1.5 μM, 24 h
Method: as §3

caspase 9 = assay: Caspase 9 activation (FAM FLICA), U-87 MG; assay type: cell-based, human; conditions: 1.5 μM, 24 h
Method: as §3

SMILES | viability at 24 h, 1 µM [1] [%] | viability at 24 h, 1.5 µM [1] [%] | Early apoptotic cells (U-87 MG) [%] | Late apoptotic cells (U-87 MG) [%] | Necrotic cells (U-87 MG) [%] | Active caspase 1 (cell population) (caspase 1; 1.0 μM) [%] | Active caspase 1 (cell population) (caspase 1; 1.5 μM) | viability at 24 h, 1 µM [2] [%] | viability at 24 h, 1.5 µM [2] [%] | Early apoptotic cells (A172) [%] | Late apoptotic cells (A172) [%] | Necrotic cells (A172) [%] | IC50 (U-118 MG) [µM] | Active caspase 3/7 (cell population) (caspase 3/7) | Active caspase 9 (cell population) (caspase 9) | Viable cells (U-87 MG) [%]
CCC(CO)NS(=O)(=O)c1ccc(-n2nc(C)c3nc4nnnn4nc32)cc1 (stereo in doubt) [MM118, N-(R)-(1-hydroxy-but-2-yl)-4-[7-methyl-5H-pyrazolo[4,3-e]tetrazolo[1,5-b][1]^,[2]^,[4]triazin-5-yl)]benzenesulfonamide] | 76.2 | 48.8 ± 3.9 | 10.28 ± 4.08 | 38.73 ± 4.09 | 2.30 ± 1.81 | 17.15 ± 1.81 | 26.65 ± 2.28% | 88.2 | 65.5 ± 5.06 | 3.03 ± 0.44 | 22.10 ± 6.56 | 9.50 ± 2.10 | 0.471 ± 0.191 | 42.40 ± 12.59% | 67.23 ± 1.66% | 
CCC(CO)NS(=O)(=O)c1ccc(-n2nc(C)c3nc4nnnn4nc32)cc1 (stereo in doubt) [MM119, N-(S)-(1-hydroxy-but-2-yl)-4-[7-methyl-5H-pyrazolo[4,3-e]tetrazolo[1,5-b][1]^,[2]^,[4]triazin-5-yl)]benzenesulfonamide] | 85.4 | 50.5 ± 7.23 | 10.18 ± 4.45 | 37.40 ± 6.20 | 1.95 ± 1.42 | 12.25 ± 2.16 | 24.50 ± 2.11% | 90.7 | 74.8 ± 1.84 | 1.00 ± 0.28 | 18.80 ± 1.35 | 2.13 ± 0.62 | 0.67 ± 0.173 | 25.60 ± 4.29% | 51.45 ± 1.63% | 
Cn1nnc2c(C(N)=O)ncn2c1=O [TMZ, temozolomide, reference compound] |  | 93.4 | 3.40 ± 1.63 | 4.73 ± 0.64 | 0.25 ± 0.24 |  | no significant differences |  | 89.75 ± 0.71 | 1.55 ± 0.06 | 6.83 ± 0.39 | 1.90 ± 0.38 | > 10 | no significant differences | no significant differences | 91.65 ± 1.58
